# From patent US8906860B2, “Methods and compositions inhibiting tumor cell proliferation” (The Board of Trustees of the University of Illinois, priority 2011, dated 2014)
# Read-outs that look alike come from different tables or passages of the source. Ends that are not written are not given here.
# Key:
# GFP-FoxM1B = assay: Nuclear localization of transfected GFP-FoxM1B in U2OS cells; format: cell-based, human; conditions: 1 μM
# Source text: FIGS. 7A-H show nuclear localization of GFP-FoxM1B fusion protein following treatment with either pharmacological kinase inhibitors or dominant negative kinases. U20S cells were transiently transfected with CMV GFP-FoxM1B with the indicated pharmacological kinase inhibitors (B-D) or dominant-negative kinase expression vectors (E-H). Cells in panel (A) were untreated.
# U2OS cells were transiently transfected in 2 well chamber slides (Nunc) with CMV GFP-FoxM1B expression constructs in the presence or absence of either CMV WT T7-p19^ARF, CMV HA-p19^ARF, or CMV expression constructs containing either N-terminal mutant T7-p19^ARF proteins (Δ1-14, Δ15-25, or Δ26-37) or V5-TAT-p19^ARF proteins (26-44; SEQ ID NO: 11, or 26-55; SEQ ID NO: 12). U2OS cells were transiently transfected with CMV EGFP expression vector containing the TAT-p19^ARF proteins (26-44; SEQ ID NO: 11, or 26-55; SEQ ID NO: 12). Forty-eight hours post transfection, cells were fixed in 4% Para-formaldehyde for 20 minutes at room temperature. GFP fluorescence or immuno-fluorescence with anti-HA antibody following TRITC conjugated secondary antibody was detected using a Zeiss microscope. U2OS cells were treated with 12 μM of the rrrrrrrrrKFVRSRRPRTASCALAFVN (SEQ ID NO: 10) peptide for 24 hours and then analyzed for TRITC fluorescence as described above.
# S2 cells = conditions: 24 hours
# Method: TUNEL assay was used to measure apoptosis in S2 cells treated with WT-blocked, mutant-blocked or WT-unblocked (D-Arg)9-p19^ARF 26-44 peptides. (D-Arg)9-p19^ARF 26-44 peptide treatment of cells was performed in 8-well chamber slides for TUNEL staining. On Day 0, 20,000 cells per well were seeded in the 8-well chamber slides. On Day 1, slides were replenished with fresh media containing one of the following concentrations of either WT-blocked, mutant-blocked or WT-unblocked (D-Arg)9-p19^ARF 26-44 peptides: 10, 15, 25, 30, 40 and 70 μM for 24 hours. On Day 2, TUNEL staining was performed following the manufacture's protocol (ApopTag® Fluorescein In Situ Apoptosis Detection Kit from CHEMICON® International, S7110). The percent of apoptosis of S2 cells (±SD) was measured by counting the number of TUNEL-positive cells (green fluorescence) per 1,000 nuclei as visualized by DAPI (blue fluorescence) counterstaining. The experiment was repeated in a second experiment using the same protocol. Statistical analysis and EC50 calculation were performed using GraphPad Prism software.
# [1] = system: p53 null thymic lymphoma cells; assay: Kidney colonization of intravenously injected p53 null thymic lymphoma cells in SCID mice; format: in vivo, mouse; conditions: 2.5 mg/kg intraperitoneal every other day, 10 injections
# Method: These experiments were performed to determine if modifying the termini conferred any advantages on these peptides when administered to an animal. Both wild type ARF 26-44 (rrrrrrrrrKFVRSRRPRTASCALAFVN) (SEQ ID NO 10) and mutant ARF 37-44 (rrrrrrrrrSCALAFVN) (SEQ ID NO 21) peptides were synthesized by Genemed Synthesis Inc. (San Antonio, Tex.). The N-terminus of each peptide was fused with nine D-Arg(r) residues. Both wild type and mutant peptides were blocked with amidation on C-terminus and acetylation on N-terminus. For sarcoma cells, mice were treated with 5 mg/kg body weight of peptide every other day for 10 times. For lymphoma cells, mice were treated with 2.5 mg/kg body weight of peptide every other day for 10 times.
# To test the therapeutic effect of the ARF-peptide on p53 null tumors in vivo, p53 null lymphoma/sarcoma cells were introduced into the circulation of SCID mice through intravenous injection. ICR SCID mice were obtained from Taconic Farms (Germantown, N.Y.). Both p53 null sarcoma and lymphoma cells were stably transduced before injection with lentivirus carrying a gene conferring luciferase expression. Specifically, cells were stably transduced with pFU-L2G luciferase construct obtained from Sanjiv Sam Gambhir (M. D., Ph.D) of Stanford University as optimized by Dr. Huiping Liu (Liu et al., Proc Natl Acad Sci USA, 107: 18115-18120). This construct enabled expression of both the bioluminescence and green fluorescence protein. eGFP positive cells were sorted by Beckman Coulter MoFlo. 3×10^6 cells were suspended in cold PBS and injected through the tail vein of SCID mice. Live animal imaging was performed using an IVIS Spectrum optical imaging machine (Caliper Life Sciences, Alameda, Calif.). […] Mice were randomized into three groups and were treated with PBS, mutant-peptide or the wild type ARF-peptide for 10 injections every other day by intraperitoneal injection. […] The mice were sacrificed and lung sections were analyzed for tumor colonies. […] For the p53 null thymic lymphoma cells, metastatic growth in kidney was observed, consistent with murine thymic lymphoma cells having a tendency to colonize kidney, liver and spleen (Aoudjit et al., 1998, Blood, 91: 623-629).
compound,measurement,setting,value
O=C1Cc2c([nH]c3ccc([N+](=O)[O-])cc23)-c2ccccc2N1 [Alsterpaullone],Nuclear localization of transfected CMV GFP-FoxM1B protein,GFP-FoxM1B,Neither DN-Cdk1 nor Alsterpaullone (1 μM) altered nuclear localization
"rrrrrrrrrKFVRSRRPRTASCALAFVN (not fully specified (N-terminus, C-terminus); printed as rrrrrrrrrKFVRSRRPRTASCALAFVN; UniProt Q64364 26-44, looked up, fragment) [WT Unblocked]","% of TUNEL Positive S2 Cells, Mean","S2 cells; Experiment 1, 10 μM/Well",2.46%
same,"% of TUNEL Positive S2 Cells, Mean","S2 cells; Experiment 1, 25 μM/Well",1.27%
same,"% of TUNEL Positive S2 Cells, Mean","S2 cells; Experiment 1, 30 μM/Well",5.59%
same,"% of TUNEL Positive S2 Cells, Mean","S2 cells; Experiment 1, 40 μM/Well",19.94%
same,"% of TUNEL Positive S2 Cells, Mean","S2 cells; Experiment 2, 10 μM/Well",6.79%
same,"% of TUNEL Positive S2 Cells, Mean","S2 cells; Experiment 2, 15 μM/Well",7.56%
same,"% of TUNEL Positive S2 Cells, Mean","S2 cells; Experiment 2, 25 μM/Well",11.19%
same,"% of TUNEL Positive S2 Cells, Mean","S2 cells; Experiment 2, 40 μM/Well",20.51%
same,"% of TUNEL Positive S2 Cells, Mean","S2 cells; Experiment 2, 70 μM/Well",30.34%
same,Apoptosis induction compared between peptides (TUNEL),"S2 cells; S2 cells, 10-70 μM",showed some activity compared to the mutant-blocked peptide at doses higher than 30 μM
"rrrrrrrrrSCALAFVN (SCALAFVN-NH2; not fully specified (N-terminus); printed as rrrrrrrrrSCALAFVN; UniProt Q64364 37-44, looked up, fragment) [mutant ARF peptide, reference compound]",Kidney tumor mass at sacrifice,[1],large tumor masses were found in the kidney
same,Luciferase signal from colonized lymphoma cells,[1]; around 20 days after inoculation,displayed strong luciferase signals
